Patent publication US20070244202A1, “Ampk Activator” (KAO CORPORATION, priority 2004, published 2007)

Legend:
C57BL/6 male mice = test: Efficacy of resveratrol in mice fed a high-fat diet for 24 weeks (body, fat and liver weight, blood analysis); format: in vivo, mouse
Experimental: Seven-week-old C57BL/6 male mice (CLEA Japan, Inc.) were employed, and the animals were divided into three groups, each containing 10 to 15 animals. Twenty-four weeks after initiation of the test, body weight was measured, and blood was collected under anesthesia and non-fasting conditions for measurement of plasma glucose, cholesterol, insulin, and leptin. In addition, visceral fat weight (epididymal fat, retroperitoneal fat, and perirenal fat) and liver weight were measured. In Example 3, resveratrol manufactured by Cayman was employed. [table]

[1] = system: lipid metabolism activity (β-oxidation activity); test: Lipid metabolism activating effect: lipid degradation (β-oxidation) activity of liver and skeletal muscle after oral administration; format: in vivo, mouse
Experimental: Seven-week-old Balb/c male mice were divided into two groups, and saline (control) or resveratrol (200 mg/kg body weight) was orally administered for 10 consecutive days. Thereafter, the liver and skeletal muscle (gastrocnemius muscle+soleus muscle) were collected from each of the animals. Each of the thus-collected liver and skeletal muscle was homogenized in buffer (250 mM sucrose, 1 mM EDTA in 10 mM HEPES (pH 7.2)), and insoluble tissue residues were centrifugally separated, whereby a supernatant was obtained. The thus-obtained supernatant was subjected to measurement of protein content, and the protein content was regulated to a constant level between samples. Each of the resultant samples was employed for measurement of lipid metabolism activity (β-oxidation activity). The supernatant protein (100 μg) was reacted with 0.1 μCi [^14C]-palmitic acid at 37° C. for 20 minutes in 200 μL (final volume) of buffer (50 mM Tris-HCl (pH 8.0), 40 mM NaCl, 2 mM KCl, 2 mM MgCl2, 1 mM DTT, 5 mM ATP, 0.2 mM L-carnitine, 0.2 mM NAD, 0.06 mM FAD, 0.12 mM CoA, 3 mM α-cyclodextrin). The reaction was stopped with 200 μL of 0.6 N perchloric acid, and then unreacted [^14C]-palmitic acid was removed three times with hexane (1 mL). Lipid degradation activity was evaluated through measurement of the radioactivity of the aqueous layer.
Lipid degradation activity was calculated relative to that of the control, which was taken as 100. […] As is clear from the test results, resveratrol is effective for activation of lipid metabolism.

[2] = system: AMPK (AMP-activated protein kinase); test: AMPK activation evaluated by phosphorylation of AMPK α and β (Western blot) in mouse muscle cell line C2C12; format: cell-based
Experimental: (§1) The AMPK activation effect of resveratrol was evaluated on the basis of phosphorylation of AMPK α and β through the below-described method by use of a mouse muscle cell line (C2C12). Mouse muscle cells (C2C12) were seeded in a 25-cm^2 flask, and cultured in DMEM (+10% FBS, +antibacterial agent) at 37° C. for one to two days. The culture medium was removed when the cells reached confluent, and the cells were washed with PBS (−), followed by replacement with DMEM (2 mass % Horse serum) and further culturing for seven to eight days while the culture medium was exchanged every two or three days. Thereafter, the culture medium was removed, and the cells were washed with PBS (−), followed by replacement with DMEM (−FBS) and further culturing for one day. After the culture medium was removed, DMEM (−FBS) containing a predetermined amount of resveratrol was added, followed by culturing for 60 minutes. […] After the concentration of the supernatant protein was measured, the protein concentration was regulated to a constant level between samples. […] Thereafter, phospho-AMPK was detected by use of anti-phospho-AMPKα (Thr72) antibody (product of Cell Signaling) or anti-phospho-AMPKβ (Ser108) antibody (product of Cell Signaling) serving as a primary antibody, anti-rabbit-HRP antibody (product of Amersham) serving as a secondary antibody, and phototope-HRP Western Detection System (product of Cell Signaling) serving as a detection reagent. The intensity of the thus-detected band was converted into numerical data (pixels) through image analysis (EDAS 290 image analysis system: KODAK), and the degree of AMPK activation was calculated relative to the control (i.e., group containing no sample), which was taken as 100. […]

[3] = system: AMPK (AMP-activated protein kinase); test: AMPK activation evaluated by phosphorylation of AMPK α and β (Western blot) in mouse hepatocyte line Hepa 1-6; format: cell-based; conditions: Hepa 1-6 cells
Experimental: as §1, with “mouse hepatocyte” for “mouse muscle cell”, “line (Hepa 1-6).” for “line (C2C12).”, “Mouse hepatocyte” for “Mouse muscle”, “cells (Hepa 1-6)” for “cells (C2C12)”, “cells became subconfluent,” for “cells reached confluent, and the cells were washed with PBS (−), followed by replacement with DMEM (2 mass % Horse serum) and further culturing for seven to eight days while the culture medium was exchanged every two or three days. Thereafter, the culture medium was removed,”, “60 minutes. Thereafter, the culture medium was removed, and the cells were washed with PBS (−), followed by addition of 200 μL of a cytolytic solution (10 mmol/L Tris (pH 7.4), 50 mmol/L sodium chloride, 30 mmol/L sodium pyrophosphate, 0.5 mass % Triton X-100, protease inhibitor cocktail (SIGMA P2714), phosphatase inhibitor cocktail-2 (SIGMA P5726)). The resultant cell lysate was collected with a cell scraper. The thus-collected cell lysate was thoroughly homogenized by passing it through a syringe using a 23-G needle (3 times), and then the cell lysate was allowed to stand on ice for 30” for “60”

[4] = 0.2% resveratrol in high-fat diet vs high-fat diet, P<0.01
[5] = 0.2% resveratrol in high-fat diet vs high-fat diet, P<0.05

SMILES: Oc1ccc(/C=C/c2cc(O)cc(O)c2)cc1 [Resveratrol, 3,4′,5-trihydroxy-trans-stilbene]
- Blood insulin level, group 3 compared with group 2 (in words) (C57BL/6 male mice; 0.2% resveratrol in high-fat diet vs high-fat diet): lower than that in group 2
- Body weight, group 3 compared with group 2 (in words) (C57BL/6 male mice; 0.2% resveratrol in high-fat diet vs high-fat diet, P<0.001): significantly lower than that in group 2
- Blood leptin level, group 3 compared with group 2 (in words) (C57BL/6 male mice; [4]): significantly lower than that in group 2
- Visceral fat weight, group 3 compared with group 2 (in words) (C57BL/6 male mice; [4]): significantly lower than that in group 2
- Liver weight, group 3 compared with group 2 (in words) (C57BL/6 male mice; [5]): significantly lower than that in group 2
- Total cholesterol level, group 3 compared with group 2 (in words) (C57BL/6 male mice; [5]): significantly lower than that in group 2
- Blood glucose level, group 3 compared with group 2 (in words) (C57BL/6 male mice; 0.2% resveratrol in high-fat diet vs high-fat diet, P<0.1): lower than that in group 2
- Visceral fat weight (C57BL/6 male mice; Group 3: high-fat diet with 0.2% resveratrol, epididymal, retroperitoneal and perirenal fat, group 1 0.88, group 2 2.17): 1.00 g
- Liver weight (C57BL/6 male mice; Group 3: high-fat diet with 0.2% resveratrol, group 1 1.34, group 2 1.62): 1.39 g
- Body weight (C57BL/6 male mice; Group 3: high-fat diet with 0.2% resveratrol, group 1 (low-fat) 32.2, group 2 (high-fat) 38.8): 32.1 g
- Leptin (C57BL/6 male mice; Group 3: high-fat diet with 0.2% resveratrol, plasma, non-fasting, group 1 1.43, group 2 6.19): 1.79 ng/mL
- Insulin (C57BL/6 male mice; Group 3: high-fat diet with 0.2% resveratrol, plasma, non-fasting, group 1 2.52, group 2 3.38): 2.03 ng/mL
- Total cholesterol (C57BL/6 male mice; Group 3: high-fat diet with 0.2% resveratrol, plasma, non-fasting, group 1 58, group 2 76): 60 mg/dL
- Glucose (C57BL/6 male mice; Group 3: high-fat diet with 0.2% resveratrol, plasma, non-fasting, group 1 133, group 2 191): 162 mg/dL
- Lipid degradation activity (β-oxidation activity) of skeletal muscle relative to control taken as 100 ([1]; Balb/c male mice, resveratrol 200 mg/kg body weight orally for 10 consecutive days, gastrocnemius + soleus muscle homogenate, [14C]-palmitic acid, control = 100): 243
- Lipid degradation activity (β-oxidation activity) of liver relative to control taken as 100 ([1]; Balb/c male mice, resveratrol 200 mg/kg body weight orally for 10 consecutive days, liver homogenate, [14C]-palmitic acid, control = 100): 323
- Lipid degradation activity (β-oxidation activity) of the liver and skeletal muscle (in words) ([1]; resveratrol 200 mg/kg orally for 10 days vs saline control, liver p<0.001, muscle p<0.001): considerably increases
- Phospho-AMPKα (degree of AMPK activation relative to control taken as 100) ([2]; C2C12 cells, resveratrol 150 μmol/L, 60 minutes, anti-phospho-AMPKα (Thr72) antibody, control = 100): 848
- Phospho-AMPKβ (degree of AMPK activation relative to control taken as 100) ([2]; C2C12 cells, resveratrol 150 μmol/L, 60 minutes, anti-phospho-AMPKβ (Ser108) antibody, control = 100): 425
- AMPK activation effect in muscle cells (in words) ([2]; summary of Table 2): potent AMPK activation effect
- Phospho-AMPKα (degree of AMPK activation relative to control taken as 100) ([3]; resveratrol 150 μmol/L, 60 minutes, anti-phospho-AMPKα (Thr72) antibody, control = 100): 538
- Phospho-AMPKβ (degree of AMPK activation relative to control taken as 100) ([3]; resveratrol 150 μmol/L, 60 minutes, anti-phospho-AMPKβ (Ser108) antibody, control = 100): 168
- AMPK activation effect (in words) ([3]; summary of Table 1): potent AMPK activation effect
